According to patent publication US8334382B2, “Substituted biaryl piperazinyl-pyridine analogues” (Neurogen Corporation, priority 2004, dated 2012):

What follows are compounds tested against T1, human capsaicin receptor (Homo sapiens, UniProt Q8NER1) (assay: Calcium mobilization assay, determination of antagonist activity). Details: capsaicin at EC50; cells expressing human capsaicin receptor; Example 6.
T1 construct: expressed in transfected cells; host or cells: HEK293, stably transfected with pBK-CMV construct
Type: cell-based
Summary of the method: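 HEK293 cells stably expressing full-length human TRPV1, loaded with Fluo-3 AM in KRH buffer pH 7.4, preincubated with compound (final 1-5 µM) in the dark at room temperature for 0.5-6 h, then stimulated with capsaicin at its EC50. FLIPR fluorescence gave IC50 as concentration halving the capsaicin response.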

T1 sequence (Q8NER1 whole entry): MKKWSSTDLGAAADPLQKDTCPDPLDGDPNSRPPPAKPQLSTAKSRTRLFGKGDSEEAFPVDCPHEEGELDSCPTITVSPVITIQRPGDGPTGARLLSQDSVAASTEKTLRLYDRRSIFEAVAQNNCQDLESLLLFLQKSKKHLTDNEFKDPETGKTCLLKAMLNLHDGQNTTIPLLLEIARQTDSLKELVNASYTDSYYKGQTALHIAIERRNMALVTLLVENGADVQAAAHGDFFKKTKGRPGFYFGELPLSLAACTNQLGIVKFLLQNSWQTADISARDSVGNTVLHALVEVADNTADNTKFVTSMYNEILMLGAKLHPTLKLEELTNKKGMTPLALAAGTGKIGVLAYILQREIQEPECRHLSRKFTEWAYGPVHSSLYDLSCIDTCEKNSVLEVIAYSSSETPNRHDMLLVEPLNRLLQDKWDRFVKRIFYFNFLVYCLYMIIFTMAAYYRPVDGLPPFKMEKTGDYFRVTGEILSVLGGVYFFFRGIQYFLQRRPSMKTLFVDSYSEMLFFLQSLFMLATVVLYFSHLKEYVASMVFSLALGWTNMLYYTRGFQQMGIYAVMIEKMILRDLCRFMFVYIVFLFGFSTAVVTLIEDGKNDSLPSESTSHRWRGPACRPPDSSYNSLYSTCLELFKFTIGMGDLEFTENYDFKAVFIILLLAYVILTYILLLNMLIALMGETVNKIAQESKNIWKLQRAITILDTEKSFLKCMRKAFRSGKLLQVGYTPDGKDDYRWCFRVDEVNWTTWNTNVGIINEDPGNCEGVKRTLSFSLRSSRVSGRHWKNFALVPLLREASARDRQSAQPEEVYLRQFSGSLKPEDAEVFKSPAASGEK

| IC50 [µM] | Structure (SMILES) |
| --- | --- |
| ≤ 1 | Cc1cc(C(=O)N2CCCCC2C)cnc1N1CCN(c2cc(-c3ccc(F)cc3)nc(N3CCCC3C)n2)CC1 (stereo not drawn) [Example 128, 4-(4-fluorophenyl)-6-(4-{3-methyl-5-[(2-methylpiperidin-1-yl)carbonyl]pyridin-2-yl}piperazin-1-yl)-2-(2-methylpyrrolidin-1-yl)pyrimidine] |
| ≤ 1 | Cc1cc(C(=O)N2CCCC2C)cnc1N1CCN(c2cc(-c3ccc(F)cc3)nc(N3CCCC3C)n2)CC1 (stereo not drawn) [Example 135, 4-(4-fluorophenyl)-6-(4-{3-methyl-5-[(2-methylpyrrolidin-1-yl)carbonyl]pyridin-2-yl}piperazin-1-yl)-2-(2-methylpyrrolidin-1-yl)pyrimidine] |
| ≤ 1 | Cc1cc(C(=O)N(C)C2CCN(C)C2)cnc1N1CCN(c2cc(-c3ccc(F)cc3)nc(N3CCCC3C)n2)CC1 (stereo not drawn) [Example 138, 6-{4-[6-(4-fluorophenyl)-2-(2-methylpyrrolidin-1-yl)pyrimidin-4-yl]piperazin-1-yl}-N,5-dimethyl-N-(1-methylpyrrolidin-3-yl)nicotinamide] |
| ≤ 1 | Cc1cc(C(=O)N2CCC(N(C)C)C2)cnc1N1CCN(c2cc(-c3ccc(F)cc3)nc(N3CCCC3C)n2)CC1 (stereo not drawn) [Example 139, l-[(6-{4-[6-(4-fluorophenyl)-2-(2-methylpyrrolidin-1-yl)pyrimidin-4-yl]piperazin-1-yl}-5-methylpyridin-3-yl)carbonyl]-N,N-dimethylpyrrolidin-3 amine] |
| ≤ 1 | C[C@@H]1CN(c2ncc(C(N)=O)cc2Cl)CCN1c1cc(-c2ccc(F)cc2)nc(N2CCOC[C@H]2C)n1 [Example 143, 5-Chloro-6-{4-[6-(4-fluoro-phenyl)-2-(3-(R)-methyl-morpholin-4-yl)-pyrimidin-4-yl]-3-(R)-methyl-piperazin-1-yl}-nicotinamide] |
| ≤ 1 | Cc1ccc(C(=O)O)nc1N1CCN(c2cc(-c3ccc(F)cc3)nc(N3CCC[C@H]3C)n2)[C@H](C)C1 [Example 144, 6-{4-[6-(4-Fluoro-phenyl)-2-(2-(R)-methyl-pyrrolidin-l-yl)-pyrimidin-4-yl]-3-(R)-methyl-piperazin-1-yl}-5-methyl-pyridine-2-carboxylic acid] |
| ≤ 1 | Cc1ccc(C(N)=O)nc1N1CCN(c2cc(-c3ccc(F)cc3)nc(N3CCC[C@H]3C)n2)[C@H](C)C1 [Example 145, 6-{4-[6-(4-Fluoro-phenyl)-2-(2-(R)-methyl-pyrrolidin-1-yl)-pyrimidin-4-yl]-3-(R)-methyl-piperazin-1-yl}-5-methyl-pyridine-2-carboxylic acid amide] |
| ≤ 1 | C[C@@H]1CN(c2ncc(CO)cc2Cl)CCN1c1cc(-c2ccc(F)c(Cl)c2)nc(N2CCC[C@H]2C)n1 [Example 146, (5-Chloro-6-{4-[6-(3-chloro-4-fluoro-phenyl)-2-(2-(R)-methyl-pyrrolidin-1-yl)-pyrimidin-4-yl]-3-(R)-methyl-piperazin-1-yl}-pyridin-3-yl)-methanol] |
| ≤ 1 | C[C@@H]1CN(c2ncc(C(=O)NCCO)cc2Cl)CCN1c1cc(-c2ccc(F)c(Cl)c2)nc(N2CCC[C@H]2C)n1 [Example 149, 5-Chloro-6-{4-[6-(3-chloro-4-fluoro-phenyl)-2-(2-(R)-methyl-pyrrolidin-1-yl)-pyrimidin-4-yl]-3-(R)-methyl-piperazin-1-yl}-N-(2-hydroxy-ethyl)-nicotinamide] |
| ≤ 1 | Cc1cc(C(=O)O)cnc1N1CCN(c2cc(-c3ccc(F)cc3)nc(N3CCOC[C@H]3C)n2)[C@H](C)C1 [Example 150, 6-{4-[6-(4-Fluoro-phenyl)-2-(3-(R)-methyl-morpholin-4-yl)-pyrimidin-4-yl]-3-(R)-methyl-piperazin-1-yl}-5-methyl-nicotinic acid] |
| ≤ 1 | Cc1cc(C(=O)O)cnc1N1CCN(c2cc(-c3ccc(F)cc3)nc(N3CCC[C@H]3CO)n2)[C@H](C)C1 [Example 151, 6-{4-[6-(4-Fluoro-phenyl)-2-(2-(S)-hydroxymethyl-pyrrolidin-l-yl)-pyrimidin-4-yl]-3-(R)-methyl-piperazin-1-yl}-5-methyl-nicotinic acid] |
| ≤ 1 | Cc1cc(C(=O)O)cnc1N1CCN(c2cc(-c3ccc(F)cc3)nc(N(C)C(C)C)n2)[C@H](C)C1 [Example 153, 6-{4-[6-(4-Fluoro-phenyl)-2-(isopropyl-methyl-amino)-pyrimidin-4-yl]-3-(R)-methyl-piperazin-1-yl}-5-methyl-nicotinic acid] |
| ≤ 1 | Cc1cc(C(=O)O)cnc1N1CCN(c2cc(-c3ccc(F)c(Cl)c3)nc(N3CCC[C@H]3C)n2)[C@H](C)C1 [Example 154, 6-{4-[6-(3-Chloro-4-fluoro-phenyl)-2-(2-(R)-methyl-pyrrolidin-1-yl)-pyrimidin-4-yl]-3-(R)-methyl-piperazin-1-yl}-5-methyl-nicotinic acid] |

Second part, the compound before the results:

| Structure (SMILES) | IC50 [µM] |
| --- | --- |
| Cc1cc(C(=O)N(C)C2CCCCC2)cnc1N1CCN(c2cc(-c3ccc(F)cc3)nc(N3CCCC3C)n2)CC1 (stereo not drawn) [Example 129, N-cyclohexyl-6-{4-[6-(4-fluorophenyl)-2-(2-methylpyrrolidin-1-yl)pyrimidin-4-yl]piperazin-1-yl}-N,5-dimethylnicotinamide] | ≤ 1 |
| Cc1cc(C(=O)N2CCC(c3ccccc3)CC2)cnc1N1CCN(c2cc(-c3ccc(F)cc3)nc(N3CCCC3C)n2)CC1 (stereo not drawn) [Example 130, 4-(4-fluorophenyl)-6-(4-{3-methyl-5-[(4-phenylpiperidin-1-yl)carbonyl]pyridin-2-yl}piperazin-1-yl)-2-(2-methylpyrrolidin-1-yl)pyrimidine] | ≤ 1 |
| Cc1cc(C(=O)N2CCN(C)CC2)cnc1N1CCN(c2cc(-c3ccc(F)cc3)nc(N3CCCC3C)n2)CC1 (stereo not drawn) [Example 131, 4-(4-fluorophenyl)-6-(4-{3-methyl-5-[(4-methylpiperazin-1-yl)carbonyl]pyridin-2-yl}piperazin-1-yl)-2-(2-methylpyrrolidin-1-yl)pyrimidine] | ≤ 1 |
| COCCN1CCN(C(=O)c2cnc(N3CCN(c4cc(-c5ccc(F)cc5)nc(N5CCCC5C)n4)CC3)c(C)c2)CC1 (stereo not drawn) [Example 132, 4-(4-fluorophenyl)-6-[4-(5-{[4-(2-methoxyethyl)piperazin-1-yl]carbonyl}-3-methylpyridin-2-yl)piperazin-1-yl]-2-(2-methylpyrrolidin-1-yl)pyrimidine] | ≤ 1 |
| Cc1cc(C(=O)N2CCN(C3CCCC3)CC2)cnc1N1CCN(c2cc(-c3ccc(F)cc3)nc(N3CCCC3C)n2)CC1 (stereo not drawn) [Example 133, 4-(4-{5-[(4-cyclopentylpiperazin-1-yl)carbonyl]-3-methylpyridin-2-yl}piperazin-1-yl)-6-(4-fluorophenyl)-2-(2-methylpyrrolidin-1-yl)pyrimidine] | ≤ 1 |
| CC(=O)N1CCN(C(=O)c2cnc(N3CCN(c4cc(-c5ccc(F)cc5)nc(N5CCCC5C)n4)CC3)c(C)c2)CC1 (stereo not drawn) [Example 134, 4-(4-{5-[(4-acetylpiperazin-1-yl)carbonyl]-3-methylpyridin-2-yl}piperazin-1-yl)-6-(4-fluorophenyl)-2-(2-methylpyrrolidin-1-yl)pyrimidine] | ≤ 1 |
| Cc1cc(C(=O)N(C)CCN(C)C)cnc1N1CCN(c2cc(-c3ccc(F)cc3)nc(N3CCCC3C)n2)CC1 (stereo not drawn) [Example 136, N-[2-(dimethylamino)ethyl]-6-{4-[6-(4-fluorophenyl)-2-(2-methylpyrrolidin-1-yl)pyrimidin-4-yl]piperazin-1-yl}-N,5-dimethylnicotinamide] | ≤ 1 |
| Cc1cc(C(=O)N(C)CCCN(C)C)cnc1N1CCN(c2cc(-c3ccc(F)cc3)nc(N3CCCC3C)n2)CC1 (stereo not drawn) [Example 137, N-[3-(dimethylamino)propyl]-6-{4-[6-(4-fluorophenyl)-2-(2-methylpyrrolidin-1-yl)pyrimidin-4-yl]piperazin-1-yl}-N,5-dimethylnicotinamide] | ≤ 1 |
| CC(=O)NC1CCN(C(=O)c2cnc(N3CCN(c4cc(-c5ccc(F)cc5)nc(N5CCCC5C)n4)CC3)c(C)c2)C1 (stereo not drawn) [Example 140, N-{l-[(6-{4-[6-(4-fluorophenyl)-2-(2-methylpyrrolidin-1-yl)pyrimidin-4-yl]piperazin-1-yl}-5-methylpyridin-3-yl)carbonyl]pyrrolidin-3-yl}acetamide] | ≤ 1 |
| COC1CCN(C(=O)c2cnc(N3CCN(c4cc(-c5ccc(F)cc5)nc(N5CCCC5C)n4)CC3)c(C)c2)CC1 (stereo not drawn) [Example 141, 4-(4-fluorophenyl)-6-(4-{5-[(4-methoxypiperidin-1-yl)carbonyl]-3-methylpyridin-2-yl}piperazin-1-yl)-2-(2-methylpyrrolidin-1-yl)pyrimidine] | ≤ 1 |
| Cc1cc(C(=O)N2CCC(F)(F)CC2)cnc1N1CCN(c2cc(-c3ccc(F)cc3)nc(N3CCCC3C)n2)CC1 (stereo not drawn) [Example 142, 4-(4-{5-[(4,4-difluoropiperidin-1-yl)carbonyl]-3-methylpyridin-2-yl}piperazin-1-yl)-6-(4-fluorophenyl)-2-(2-methylpyrrolidin-1-yl)pyrimidine] | ≤ 1 |
| CC1CCCN1c1nc(-c2ccc(F)cc2)cc(N2CCN(c3ncc(C(C)(C)O)cc3Cl)CC2)n1 (stereo not drawn) [Example 147, 2-(5-Chloro-6-{4-[6-(4-fluoro-phenyl)-2-(2-methyl-pyrrolidin-1-yl)-pyrimidin-4-yl]-piperazin-1-yl}-pyridin-3-yl)-propan-2-ol] | ≤ 1 |
| CC(O)c1cnc(N2CCN(c3cc(-c4ccc(F)cc4)nc(N4CCCC4C)n3)CC2)c(Cl)c1 (stereo not drawn) [Example 148, l-(5-Chloro-6-{4-[6-(4-fluoro-phenyl)-2-(2-methyl-pyrrolidin-1-yl)-pyrimidin-4-yl]-piperazin-1-yl}-pyridin-3-yl)-ethanol] | ≤ 1 |
| CC1CCCN1c1nc(-c2ccc(F)cc2)cc(N2CCN(c3ncc(CC(N)=O)cc3Cl)CC2)n1 (stereo not drawn) [Example 152, 2-(5-Chloro-6-{4-[6-(4-fluoro-phenyl)-2-(2-methyl-pyrrolidin-1-yl)-pyrimidin-4-yl]-piperazin-1-yl}-pyridin-3-yl)-acetamide] | ≤ 1 |
